Data set [1] deals with BV-2. Briefly: Antiinflammatory activity in mouse BV2 cells assessed as inhibition of LPS-induced NO production after 24 hrs by Griess assay. The class given is functional, cell-based. Particulars: BV-2, 24 h. In general terms: Nitrite, measured by Griess reagent, commonly stands in for NO production.
Data set [2] concerns BV-2. Briefly: Cytotoxicity against mouse BV2 cells assessed as cell viability at 50 uM by MTT assay. Format: cell-based. Particulars: bv-2, 50 µM. In general terms: Tetrazolium dyes change colour on reduction, which living cells bring about.

One may read the IC50 as the midpoint of a concentration-inhibition curve. In the case of `O=c1c2cc(O)ccc2oc2c(O[C@@H]3O[C@H](CO)[C@@H](O)[C@H](O)[C@H]3O)ccc(O)c12`, the IC50 with BV-2 [1] came to 38.4 µM. Turning to `COc1cc2c(=O)c3c(O)cc(O)cc3oc2cc1O` [ALLOATHYRIOL], the half-inhibitory concentration (IC50) with BV-2 [1] is above 100 µM. For the compound `O=c1c2ccc(O)cc2oc2cccc(O)c12`, the Activity entry in the data set with BV-2 [2] is “Toxic”. Consider `COc1ccc(O)c2c(=O)c3cc(O)ccc3oc12`, for which the IC50 with BV-2 [1] was 7.4 µM.

Turning to `COc1cc2oc3cc(O)c(O)cc3c(=O)c2c(O)c1OC`, in the data set with BV-2 [2], the Activity entry is “Toxic”. As for `COc1c(O)cc2oc3ccc(O)cc3c(=O)c2c1O`, the Activity result with BV-2 [2] is “Toxic”.

As for `O=c1c2cc(O)ccc2oc2cc3c(c(O)c12)OCO3`, the IC50 in the data set on BV-2 [1] worked out at 20.6 µM. In the case of `COc1ccc2c(c1)c(CC(=O)O)c(C)n2C(=O)c1ccc(Cl)cc1` [INDOMETHACIN], the IC50 in the data set on BV-2 [1] amounted to 7.1 µM. The same measure, in the same setting: under `O=c1c2cc(O)c(O)cc2oc2cc(O)c([C@@H]3O[C@H](CO)[C@@H](O)[C@H](O)[C@H]3O)c(O)c12` [MANGIFERIN] stands 38.5 µM.

These data come from ChEMBL document CHEMBL2434830, “Inhibitory constituents from the aerial parts of Polygala tenuifolia on LPS-induced NO production in BV2 microglia cells” (Bioorg Med Chem Lett, 2013).
